Like-named read-outs stand apart in the source and are kept apart here.
Assays:
α2-adrenergic receptors = biological target: T1, α2-adrenergic receptors (Rattus norvegicus, UniProt P22909); assay: Radioligand binding to α2-adrenergic receptors ([3H]-Para aminoclonidine, rat cerebral cortex membranes)
T1 construct: rat cerebral cortex membranes were employed as a source of receptors; from tissue; host or cells: cerebral cortex membranes of male Sprague Dawley rats
T1 sequence (P22909 1-465): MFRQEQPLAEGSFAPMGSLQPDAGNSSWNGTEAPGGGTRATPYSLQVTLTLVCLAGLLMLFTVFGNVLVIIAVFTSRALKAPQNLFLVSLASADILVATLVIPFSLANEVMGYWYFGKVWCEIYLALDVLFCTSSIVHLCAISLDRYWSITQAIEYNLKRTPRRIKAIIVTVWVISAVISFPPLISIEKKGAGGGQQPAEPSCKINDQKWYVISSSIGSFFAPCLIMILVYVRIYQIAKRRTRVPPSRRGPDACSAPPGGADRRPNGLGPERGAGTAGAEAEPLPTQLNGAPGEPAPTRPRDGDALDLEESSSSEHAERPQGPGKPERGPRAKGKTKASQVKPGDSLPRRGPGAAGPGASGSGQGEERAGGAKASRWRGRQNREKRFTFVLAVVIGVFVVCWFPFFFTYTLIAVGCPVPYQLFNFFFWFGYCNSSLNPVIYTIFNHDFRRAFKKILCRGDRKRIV
Method: (§1) To test the selectivity and specificity of the present compounds for binding to dopamine receptors, tests were conducted using the following standard procedures.
To test binding of the compounds to α2 -adrenergic receptors, rat cerebral cortex membranes were employed as a source of receptors. Male Sprague Dawley rats were killed by decapitation and the brains removed. The cerebral cortices were homogenized in 50 mM Tris; 2 mM MgCl2 (pH 7.4), and centrifuged at 40,000 × g for 10 minutes. The pellet was washed once, resuspended in Tris/MgCl2 and incubated with 8 units/ml adenosine deaminase at 37° C. for 30 minutes. The homogenate was centrifuged, washed once, resuspended to a protein concentration of 5-10 mg/ml and frozen at -70° C. until use.
(§2) The following tritiated drugs were used as radioligands for each of the receptors tested: [^3 H]-Spiperone 21-24 Ci/mmol for D2 receptors, [^3 H]-SCH23390 75-85 Ci/mmol for D1 receptors, and [^3 H]-Para aminoclonidine 48-52 Ci/mmol for α2 -adrenergic receptors. The radio-ligands were incubated with various concentrations of competing drug and the appropriate membrane source for periods of time as follows: 75 minutes at room temperature for D2 receptors, 30 minutes at 37° C. for D1 receptors, or 30 minutes at room temperature for α2 receptors. Specific binding was defined using 1μM butaclamol (D2), 1 μM SCH23390 (D1), or 1 μM yohimbine (α2). In addition the D2 assays contained 30 nM ketaserin in order to block the binding of ^3 H-spiperone to 5HT2 receptors.
(§3) The assays were terminated by filtration using a 24-port Brandell cell harvester over filters that had been previously soaked in 0.1% polyethyleneimine, and the filters were washed three times by filtration of cold buffer. The filters were then placed in 5 ml scintillation vials to which 4 ml of Beckman Ready-Protein was then added, and each vial was counted for 2 minutes in a Beckman 3801 scintillation counter calibrated for conversion of cpm to dpm. Binding data were analyzed using the Ligand program of Munson and Rodbard (1980). The results are presented as Ki values if the data were best fitted to a one-site model, or as KH and KL values if a two-site model produced the better fit.

dopamine D2 receptors = biological target: T2, dopamine D2 receptors (Bos taurus, UniProt P20288); assay: Radioligand binding to dopamine D2 receptors ([3H]-Spiperone, bovine caudate nuclei membranes); details: for affinity and selectivity for dopamine D2 receptors (in words): result in words
T2 construct: membranes derived from bovine caudate nuclei assay were employed; from tissue; host or cells: bovine caudate nuclei membranes (brains from a local slaughterhouse)
Method: as §1
(§4) To test binding to dopamine receptors, membranes derived from bovine caudate nuclei assay were employed. Bovine brains were obtained fresh from a local slaughterhouse. The caudate nuclei were dissected out and homogenized in Buffer A (50 mM Tris; 1 mM Na2 -EDTA; 5 mM KCl; 1 mM MgCl2; 2 mM CaCl2; pH 7.4) using a Brinkman Polytron. The homogenate was centrifuged at 40,000 × g for 20 minutes and washed once. The pellett was resuspended in Buffer A, incubated at 37° C. for 15 minutes, then centrifuged. The pellet was washed once more, resuspended to a protein concentration of 5-10 mg/ml in Buffer A and frozen at -70° C. until used.
as §2, §3

dopamine D1 receptors = biological target: T3, dopamine D1 receptors (Bos taurus, UniProt Q95136); assay: Radioligand binding to dopamine D1 receptors ([3H]-SCH23390, bovine caudate nuclei membranes)
T3 construct: membranes derived from bovine caudate nuclei assay were employed; from tissue; host or cells: bovine caudate nuclei membranes (brains from a local slaughterhouse)
Method: as §1, §4, §2, §3

dopamine D2 = details: result in words; cited from earlier work
dopamine receptor = details: prior art, result in words; cited from earlier work
[1] = [3H]-Para aminoclonidine, rat cerebral cortex membranes, 30 minutes at room temperature, read-out: RECEPTOR AFFINITIES Ki, α2
[2] = [3H]-Spiperone, bovine caudate membranes, 75 minutes at room temperature, 30 nM ketaserin, read-out: RECEPTOR AFFINITIES Ki, D2 (KL)
[3] = [3H]-SCH23390, bovine caudate membranes, 30 minutes at 37° C., read-out: RECEPTOR AFFINITIES Ki, D1 (KL)

T3 sequence (Q95136 whole entry): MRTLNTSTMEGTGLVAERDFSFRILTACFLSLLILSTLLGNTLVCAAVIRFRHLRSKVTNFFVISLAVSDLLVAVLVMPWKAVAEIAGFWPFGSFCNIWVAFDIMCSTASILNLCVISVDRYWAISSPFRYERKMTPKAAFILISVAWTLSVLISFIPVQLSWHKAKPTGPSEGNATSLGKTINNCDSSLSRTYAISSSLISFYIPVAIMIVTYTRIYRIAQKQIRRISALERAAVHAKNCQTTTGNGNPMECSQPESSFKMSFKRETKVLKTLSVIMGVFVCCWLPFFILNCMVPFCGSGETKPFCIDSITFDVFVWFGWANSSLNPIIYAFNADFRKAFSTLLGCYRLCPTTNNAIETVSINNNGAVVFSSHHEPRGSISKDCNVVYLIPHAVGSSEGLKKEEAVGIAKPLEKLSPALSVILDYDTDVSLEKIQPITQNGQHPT
T2 sequence (P20288 whole entry): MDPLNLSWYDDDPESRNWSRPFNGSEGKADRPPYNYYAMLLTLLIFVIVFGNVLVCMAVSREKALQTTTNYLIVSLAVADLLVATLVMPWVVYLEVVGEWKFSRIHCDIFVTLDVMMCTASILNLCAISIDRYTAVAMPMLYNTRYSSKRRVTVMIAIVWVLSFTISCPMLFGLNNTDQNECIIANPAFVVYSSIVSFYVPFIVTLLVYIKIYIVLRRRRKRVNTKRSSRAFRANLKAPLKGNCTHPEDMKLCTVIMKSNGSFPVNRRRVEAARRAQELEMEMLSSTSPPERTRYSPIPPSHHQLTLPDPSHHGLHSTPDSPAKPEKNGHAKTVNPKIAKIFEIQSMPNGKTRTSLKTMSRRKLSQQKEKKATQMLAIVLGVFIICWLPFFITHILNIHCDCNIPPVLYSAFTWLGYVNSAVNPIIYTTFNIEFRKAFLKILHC

| Compound | Ki (α2-adrenergic receptors; [1]) | Ki (dopamine D2 receptors; [2]) | Ki (dopamine D1 receptors; [3]) | further results |
| --- | --- | --- | --- | --- |
| CCCN(CCCN1C(=O)c2ccccc2C1=O)C1CCc2c(O)cccc2C1 (stereo not shown) [Example 10, 2-[3-[propyl(1,2,3,4-tetrahydro-5-hydroxy-2-naphthalenyl)amino]propyl]-1H-isoindole-1,3(2H)-dione] | 142 nM | 1260 nM | 3.23 µM |  |
| CCCN(CCn1c(C)ccc1C)C1CCc2c(O)cccc2C1 (stereo not shown) [Example 4, 6-[[2-(2,5-dimethyl-1H-pyrrol-1-yl)ethyl]propylamino]-5,6,7,8-tetrahydro-1-naphthalenol] | 1400 nM | 100 nM | 10 µM |  |
| CCCN(CCCn1c(C)ccc1C)C1CCc2c(O)cccc2C1 (stereo not shown) [Example 2] |  |  |  | Ki (α2-adrenergic receptors): 1600 nM; Ki (dopamine D2 receptors): 26 nM; affinity and selectivity for dopamine D2 receptors (in words) (dopamine D2 receptors; listed as 2,5-dimethyl-N-propyl-N-(1,2,3,4-tetrahydro-5-hydroxy-2-naphthalenyl)-1H-pyrrole): high affinity and selectivity for binding to D2 dopamine receptors; affinity and selectivity for dopamine D2 receptors (in words) (dopamine D2 receptors; listed as 6-[[3-(2,5-dimethyl-1H-pyrrol-1-yl)propyl]propylamino-5,6,7,8-tetrahydro-1-napht): high affinity and selectivity for binding to dopamine D2 receptors; Ki (dopamine D1 receptors): 2.7 µM |
| CCCN(CCc1cccs1)C1CCc2c(O)cccc2C1 (racemic) [Example N-0437, reference compound] |  |  |  | Ki (α2-adrenergic receptors): 190 nM; Ki (dopamine D2 receptors): 110 nM; Ki (dopamine D1 receptors): 1 µM; dopamine D2 agonist potency (in words) (dopamine D2): potent dopamine D2 agonist |
| CCCN(CCN1C(=O)c2ccccc2C1=O)C1CCc2c(O)cccc2C1 (stereo not shown) [Example 13, 2-[2-[propyl(1,2,3,4-tetrahydro-5-hydroxy-2-naphthalenyl)amino]ethyl]-1H-isoindole-1,3(2H)-dione] | 10000 nM | 1260 nM | 14 µM |  |
| CN1CCc2cccc3c2[C@H]1Cc1ccc(O)c(O)c1-3 [apomorphine] |  |  |  | dopaminergic activity (in words) (dopamine receptor): high activity |
| CCCN(CCN1Cc2ccccc2C1)C1CCc2c(O)cccc2C1 (stereo not shown) [Example 14, 6[[2-(1,3-dihydro-2H-isoindol-2-yl)ethyl]propylamino]-5,6,7,8-tetrahydro-1-naphthalenol] | 2630 nM | 52 nM | 4.86 µM |  |
| CCCN(CCCN1Cc2ccccc2C1)C1CCc2c(O)cccc2C1 (stereo not shown) [Example 11, 6-[[3-(1,3-dihydro-2H-isoindol-2-yl)propyl]propylamino]-5,6,7,8-tetrahydro-1-napththalenol] | 1130 nM | 720 nM | 3 µM |  |
